Test: Stability studies of amorphous zafirlukast under storage/stress conditions (XRD)
Format: physicochemical
Description: A sample of amorphous zafirlukast prepared using the above process was subjected to different conditions to determine the stability of the mixture under stress conditions.
The sample was packed in a clear polyethylene bag, tied with a tag, placed in a black polyethylene bag along with a silica pouch, which was filled with nitrogen, then sealed in a triple laminated bag, and finally sealed and stored in an HDPE drum.

Measured: Solid-form stability (XRD spectra) after storage

4-(5-cyclopentyloxy-carbonylamino-1-methyl-indol-3-ylmethyl)-3-methoxy-N-O-tolylsulfonylbenzamide [Amorphous form]
No change in XRD spectra: Long-term storage for 3 months, packed in polyethylene bags with silica pouch under nitrogen, triple laminated bag, HDPE drum | Storage at 25 + 5 C. and 60 + 5% RH, same packing | Storage at 40 + 5 C. and 70 + 5% RH, same packing

From patent US20090149662A1, “PROCESSES FOR PREPARING ZAFIRLUKAST” (priority 2007, published 2009)
